Assay [1] deals with methicillin resistant Staphylococcus aureus (MRSA). Kind of assay: microbe, parasite or virus in culture. As to conditions: 17 h.
Assay [2] shares this test system. As to conditions: for MIC: MRSA growth after 17 h at 37° C., LB medium, absorbance at 600 nm, triplicate.

In brackets after ≈: the same amount, converted by molar mass. Read-outs that look alike come from different tables or passages of the source. Positions of bridges follow the written chain, without caps; N, C: chain ends. Residues, ends and D or L forms follow the SMILES beside them.

In assay [1], `COc1cc(Cc2cnc(N)nc2N)cc(OC)c1OC` [TMP, trimethoprim] had an MIC of 2 µM (≈ 0.581 µg/mL).
`CC[C@H](C)[C@@H]1NC(=O)[C@H](CO)NC(=O)[C@H](CCCCN)NC(=O)[C@@H]2CSSC[C@@H](C(=O)N[C@@H](Cc3ccc(O)cc3)C(N)=O)NC(=O)[C@H](CCCCN)NC(=O)[C@@H]3CSSC[C@H](NC(=O)[C@H](CCC(N)=O)NC(=O)[C@H](CCSC)NC(=O)[C@H](CC(=O)O)NC(=O)[C@H](CC(=O)O)NC(=O)[C@H](CCC(=O)O)NC(=O)[C@H](CC(=O)O)NC(=O)[C@H](Cc4c[nH]c5ccccc45)NC(=O)[C@@H]4CCCN4C(=O)CNC(=O)[C@H](CC(N)=O)NC(=O)[C@@H](NC(=O)CNC(=O)[C@H](Cc4ccccc4)NC(=O)CN)CSSC[C@H](NC(=O)[C@H](Cc4ccc(O)cc4)NC(=O)CNC(=O)CNC(=O)[C@H](CCCCN)NC(=O)[C@H](Cc4ccc(O)cc4)NC(=O)CNC(=O)[C@H](CCCCN)NC1=O)C(=O)N[C@@H](C)C(=O)N[C@@H](CCCCN)C(=O)NCC(=O)NCC(=O)N[C@@H](Cc1ccccc1)C(=O)N[C@@H](C(C)C)C(=O)N3)C(=O)N[C@@H](Cc1c[nH]cn1)C(=O)N[C@@H](CC(N)=O)C(=O)N[C@@H](Cc1c[nH]cn1)C(=O)N2` [plectasin WT, plectasin, reference compound] gave an MIC in assay [2] of 5 µM (≈ 22 µg/mL).
Take `CC[C@H](C)[C@@H]1NC(=O)[C@H](CO)NC(=O)[C@H](CCCCN)NC(=O)[C@@H]2CSSC[C@@H](C(=O)N[C@@H](Cc3ccc(O)cc3)C(N)=O)NC(=O)[C@H](CCCCN)NC(=O)[C@@H]3CSSC[C@H](NC(=O)[C@H](CCC(N)=O)NC(=O)[C@H](C)NC(=O)[C@H](CC(=O)O)NC(=O)[C@H](CC(=O)O)NC(=O)[C@H](CCC(=O)O)NC(=O)[C@H](CC(=O)O)NC(=O)[C@H](Cc4c[nH]c5ccccc45)NC(=O)[C@@H]4CCCN4C(=O)CNC(=O)[C@H](CC(N)=O)NC(=O)[C@@H](NC(=O)CNC(=O)[C@H](Cc4ccccc4)NC(=O)CN)CSSC[C@H](NC(=O)[C@H](Cc4ccc(O)cc4)NC(=O)CNC(=O)CNC(=O)[C@H](CCCCN)NC(=O)[C@H](Cc4ccc(O)cc4)NC(=O)CNC(=O)[C@H](CCCCN)NC1=O)C(=O)N[C@@H](C)C(=O)N[C@@H](CCCCN)C(=O)NCC(=O)NCC(=O)N[C@@H](Cc1ccccc1)C(=O)N[C@@H](C(C)C)C(=O)N3)C(=O)N[C@@H](Cc1c[nH]cn1)C(=O)N[C@@H](CC(N)=O)C(=O)N[C@@H](Cc1c[nH]cn1)C(=O)N2` [plectasinMet13Ala] (H-GFGCNGPWDEDDAQCHNHCKSIKGYKGGYCAKGGFVCKCY-NH2; disulfide 4-30, 15-37, 19-39; N-terminus assumed): the “improvement of the antimicrobial activity” value in assay [2] (MRSA MIC analysis, worded as 'even in comparison to' trimethoprim (TMP)) is given as “four-fold”. In addition, the “enhanced activity relative to the wild type plectasin” value in assay [2] (MRSA MIC, relative to wild type plectasin) was “four-fold”. The molecule also returned an MIC in assay [2] of 1.25 µM (≈ 5.43 µg/mL).

Values taken from patent US20230357314A1, “METHODS FOR ULTRAFAST FORMATION OF DISULFIDE BONDS IN PEPTIDES AND PROTEINS” (TECHNION RESEARCH & DEVELOPMENT FOUNDATION LIMITED, priority 2020, published 2023).
